# Assay results published in ChEMBL document CHEMBL1136214, “Indole-based heterocyclic inhibitors of p38alpha MAP kinase: designing a conformationally restricted analogue” (Bioorg Med Chem Lett, 2003).
# Molecular target: Mitogen-activated protein kinase 14 (Homo sapiens, UniProt Q16539)
# Experiment: Inhibition of Mitogen-activated protein kinase p38 alpha
# Mitogen-activated protein kinase 14, sequence (Q16539 whole entry): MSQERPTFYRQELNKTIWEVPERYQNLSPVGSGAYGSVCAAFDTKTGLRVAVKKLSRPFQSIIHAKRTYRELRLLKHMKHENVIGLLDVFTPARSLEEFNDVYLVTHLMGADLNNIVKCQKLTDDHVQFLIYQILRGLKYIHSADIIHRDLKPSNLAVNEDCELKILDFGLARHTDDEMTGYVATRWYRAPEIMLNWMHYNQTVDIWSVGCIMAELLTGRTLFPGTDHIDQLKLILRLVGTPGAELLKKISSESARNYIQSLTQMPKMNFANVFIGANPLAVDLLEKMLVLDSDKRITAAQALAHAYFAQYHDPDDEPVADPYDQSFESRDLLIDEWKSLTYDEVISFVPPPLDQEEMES
row,IC50,Compound
1,1300 nM,C[C@@H]1CN(Cc2ccccc2)[C@@H](C)CN1C(=O)c1ccc2[nH]ccc2c1
2,> 30000 nM,O=C(c1cccc2cc[nH]c12)N1CCN(Cc2ccccc2)CC1
3,950 nM,COc1cc2[nH]ccc2cc1C(=O)N1CCN(Cc2ccccc2)CC1
4,1650 nM,COc1cc2[nH]ccc2cc1C(=O)N1C[C@@H](C)N(Cc2ccccc2)C[C@@H]1C
5,70 nM,COc1cc2[nH]ccc2cc1C(=O)N1C[C@H](C)N(Cc2ccccc2)C[C@H]1C (racemic)
6,20 nM,COc1cc2[nH]ccc2cc1C(=O)N1C[C@H](C)N(Cc2ccccc2)C[C@H]1C
